pIC50: −log10 of the molar value.
Columns and labels:
[1] = Test for permeability across MDR1; format: in vitro ADME; settings: dog, MDCK-MDR1
Description: Test for Permeability Across MDR1
A sample for test was dissolved in dimethyl sulfoxide (DMSO) or other suitable solvents, to be prepared into 10 mM stock solution. A suitable internal standard (IS) was dissolved in acetonitrile (ACN) or other organic solvents as a stop solution. Specific information would be described in a research report.
Fenoterol, propranolol, and digoxin acted as low-permeability control, high-permeability control, and P-gp substrate in the present research. The stock solutions of these compounds were prepared with DMSO, stocked at 2-8° C., and valid for use within 3 months.
In the present project, a Hank's balanced salt buffer containing 10 mM HEPES was used as a transport buffer.
MDR1-MDCK II cells were cultivated using α-MEM culture media (α-Minimum Essential Media), with a culture condition of 37±1° C., 5% CO2, and saturated relative humidity. Afterwards, the cells were inoculated into a BD Transwell-96-well plate (BD Gentest), with an inoculation density of 2.3×10^5 cells/cm^2, then the cells were placed in a carbon dioxide incubator to be incubated for 4-7 days, and then used for a transport experiment.
A solution to be used was placed in a 37±1° C. water bath kettle to be pre-incubated for 30 minutes. The donor solution and the receiver solution were respectively added to corresponding sides of wells of cell plate (to an apical side and a basolateral side, 75 μL and 250 μL of samples were added respectively), and experiment of bidirectional transport was started. After the addition of the samples, the cell plate was placed in a 37±1° C., 5% CO2 incubator with saturated relative humidity to be incubated for 150 minutes.
The samples were all centrifuged at 3220 g for 10 minutes after being shaken in a vortex manner. A suitable volume of a supernatant was transferred to a sample analyzing plate. If analysis was not carried out immediately after the plate was sealed, the plate was stored at 2-8° C. The analysis was carried out through a method of LC/MS/MS.
The sample for test, fenoterol control, propranolol control, and digoxin were analyzed in a semiquantitative manner, and specific values of analytes to a peak area of the internal standard were taken as concentration of the controls.

[2] = biological target: T1, recombinant human IDO1 enzyme (Homo sapiens, UniProt P14902); experiment: Test of hIDO1 for enzymatic activity in vitro (NFK Green fluorescence); format: biochemical
T1 construct: purchased NTRC (Netherlands Translational Research Center) NTRC-hIDO-10K
T1 sequence (P14902 whole entry): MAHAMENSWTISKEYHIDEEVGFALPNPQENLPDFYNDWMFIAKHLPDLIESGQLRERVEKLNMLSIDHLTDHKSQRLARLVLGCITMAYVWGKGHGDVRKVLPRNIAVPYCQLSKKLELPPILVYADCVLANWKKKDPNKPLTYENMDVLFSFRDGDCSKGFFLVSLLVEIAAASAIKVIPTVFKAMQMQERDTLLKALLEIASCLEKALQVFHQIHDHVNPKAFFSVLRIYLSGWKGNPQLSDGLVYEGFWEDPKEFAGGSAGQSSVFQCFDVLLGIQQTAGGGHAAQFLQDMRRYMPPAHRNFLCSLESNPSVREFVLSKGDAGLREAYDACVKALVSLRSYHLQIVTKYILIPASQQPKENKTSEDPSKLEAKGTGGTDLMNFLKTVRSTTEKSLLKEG
Description: 1. Test of hIDO1 for Enzymatic Activity In Vitro
1.1 Purpose of Experiment:
Changes in production of NFK, an IDO1 enzymatic metabolite were detected with NFK Green™ fluorescent molecules. With an IC50 value of a compound as an index, an inhibitory effect of the compound on recombinant human IDO1 enzyme was evaluated.
The compound was diluted with dimethyl sulfoxide (DMSO) to 1 mM, with 10 gradients, each 3-fold dilution, in duplicate. 48 μL of 50 mM phosphate buffer, having pH of 6.5, was transferred by the Bravo automatic liquid processing platform to the compound plate. Then 2 μL of an already diluted compound/DMSO solution was added. After even mixing, 10 μL of the resultant mixture was transferred to the enzymatic reaction plate.
IDO1 enzyme was diluted to 20 nM in a reaction buffer (50 mM phosphate buffer with pH of 6.5, 0.1% of Tween-20, 2% of glycerol, 20 mM ascorbic acid, 20 μg/ml catalase, and 20 μM methylene blue), 20 μL of the diluted IDO1 enzyme was transferred to the enzymatic reaction plate, and incubated at 23° C. for 30 minutes. 10 μL of 400 μM L-type tryptophan substrate was added to start reaction. The incubation lasted at 23° C. for 90 minutes. 10 μL of NFK Green™ fluorescent dye was added. The resultant mixture was sealed with the plate sealing film. After incubation at 37° C. for 4 hours, an Envision multi-functional plate reader was used for reading (Ex 400 nm/Em 510 nm).
A reference well to which the IDO1 enzyme was added but no compound was added was set to have an inhibition rate of 0%, and a reference well to which no IDO1 enzyme was added was set to have an inhibition rate of 100%. Data was analyzed with XLFit 5 to calculate an IC50 value of the compound.

mice colon cancer CT26 = experiment: Efficacy against mice colon cancer CT26 transplanted tumor; format: in vivo, BALB/c mice; settings: 100 mg/kg gavage BID
Description: Research on Efficacy of Anti-Mice Colon Cancer Ct26
In the present research, colon cancer CT26 models were employed to compare differences between compound 231 and compounds 360 and 117 in antitumor effects.
Therefore, the dose of the two compounds, compound 360 and compound 117, in the present experiment was set as 100 mg/kg. In order to observe dose-efficacy relevance of 231, a dose of the compound 231 was set as 25, 50, 100, 200 mg/kg in the present experiment. All drugs were administered by gavage, twice a day.
According to document reports, mice colon cancer CT26 is a commonly used tumor model for evaluating immunological drugs. […] Therefore, CT26-bearng BALB/c models were chosen in the present experiment for research on efficacy and tissue distribution.
In a super-clean bench, each mouse was subcutaneously inoculated with 0.2 mL of the tumor cell suspension at shoulder, with an inoculation amount of 1×10^5 per mouse. When a tumor block grew to be 500-1000 mm^3, the tumor block was taken out, cut into pieces with scissors, and subcutaneously inoculated at shoulder at the mouse's back using a subcutaneous embedding implantation puncture needle (with a diameter of 1.2 mm).
The day of tumor inoculation was defined as Day 0, and the inoculated animals were grouped randomly on the day of inoculation. One day after the inoculation (Day 1), the administration was started. The experiment had 7 groups in total, with 12 animals in each group. See details in Table 12 for information on animal grouping and administration.
It was an experimental cycle when the tumor in the control group grew to have a volume of 3000 mm^3. The following indexes were observed during the experiment.
(1) As for tumor growth curve, when the tumor was measurable, a maximum diameter (a) and a minimum diameter (b) of the tumor were measured once every other day, to calculate the tumor volume (a calculation formula is V=½×a×b^2), and anti-tumor effect of the tested drug was observed dynamically.
(4) As for tumor inhibitory rate, when the experiment was ended, the mice were killed by cervical dislocation, the tumor blocks were taken out and weighed, to calculate the tumor inhibitory rate, where tumor inhibitory rate=(mean tumor weight of the control group-mean tumor weight of the treatment group)/mean tumor weight of the control group×100%), and the tumor blocks were photographed with a digital camera for recording.

SMILES	Papp A→B at 150 min, 2 µM [1] [×10⁻⁶ cm/s]	Papp B→A at 150 min, 2 µM [1] [×10⁻⁶ cm/s]	pIC50 [2]	mean tumor volume compared with the control group during the test (mice colon cancer CT26)	animals without tumor block when the test was ended (mice colon cancer CT26; 12 animals)	Mean Tumor Volume (mice colon cancer CT26; D12) [mm^3]	Mean Tumor Volume (mice colon cancer CT26; D14) [mm^3]	Mean Tumor Volume (mice colon cancer CT26; D17) [mm^3]	Mean Tumor Volume (mice colon cancer CT26; Day8) [mm^3]	Mean Tumor Volume (mice colon cancer CT26; Day10) [mm^3]	Inhibitory Rate for Tumor Weight (mice colon cancer CT26; end of experiment) [%]	Tumor Weight (mice colon cancer CT26; end of experiment) [g]	mean tumor weight compared with the control group (mice colon cancer CT26; end of experiment)
NS(=O)(=O)NCCOc1nonc1/C(=N/O)Nc1ccc(F)c(Br)c1 [Compound 0015]	1.76	13.6	6.94	–	–	–	–	–	–	–	–	–	–
NS(=O)(=O)NCCSc1nonc1/C(=N/O)Nc1ccc(F)c(Br)c1 [Compound 0117]	3.2	11.3	7.58	always less than that of the control group, but without statistical difference	one animal on which no tumor block grew	517.3 ± 261.9	760.9 ± 335.7	1410.5 ± 734.0	130.1 ± 31.1	262.3 ± 131.2	14.4	1.71 ± 0.76	less than that of the control group, but without statistical difference
